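In this assay, cells in 96-well plates receive the compound at five concentrations for 48 hours. Endpoints are linearly interpolated between the surrounding concentrations. The concentration for full growth arrest is given as TGI.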
What was measured:
Assay in all cases: DTP human tumour cell line panel, 48 h
786-0 renal = system: 786-0 renal
A498 renal = system: A498 renal
ACHN renal = system: ACHN renal
BT-549 breast = system: BT-549 breast
CAKI-1 renal = system: CAKI-1 renal
CCRF-CEM leukemia = system: CCRF-CEM leukemia
COLO 205 colon = system: COLO 205 colon
DU-145 prostate = system: DU-145 prostate
EKVX NSCLC = system: EKVX NSCLC
HCC-2998 colon = system: HCC-2998 colon
HCT-116 colon = system: HCT-116 colon
HCT-15 colon = system: HCT-15 colon
HL-60(TB) leukemia = system: HL-60(TB) leukemia
HOP-62 NSCLC = system: HOP-62 NSCLC
HOP-92 NSCLC = system: HOP-92 NSCLC
HS 578T breast = system: HS 578T breast
HT29 colon = system: HT29 colon
IGROV1 ovarian = system: IGROV1 ovarian
K-562 leukemia = system: K-562 leukemia
KM12 colon = system: KM12 colon
LOX IMVI melanoma = system: LOX IMVI melanoma
M14 melanoma = system: M14 melanoma
MALME-3M melanoma = system: MALME-3M melanoma
MDA-MB-231 breast = system: MDA-MB-231 breast
MDA-MB-435 = system: MDA-MB-435
MDA-N = system: MDA-N
MOLT-4 leukemia = system: MOLT-4 leukemia
NCI-H226 lung = system: NCI-H226 lung
NCI-H23 lung = system: NCI-H23 lung
NCI-H460 lung = system: NCI-H460 lung
NCI-H522 lung = system: NCI-H522 lung
NCI/ADR-RES ovarian = system: NCI/ADR-RES ovarian
OVCAR-3 ovarian = system: OVCAR-3 ovarian
OVCAR-4 ovarian = system: OVCAR-4 ovarian
OVCAR-5 ovarian = system: OVCAR-5 ovarian
OVCAR-8 ovarian = system: OVCAR-8 ovarian
PC-3 prostate = system: PC-3 prostate
RPMI-8226 leukemia = system: RPMI-8226 leukemia
SF-268 CNS = system: SF-268 CNS
SK-MEL-2 melanoma = system: SK-MEL-2 melanoma
SK-MEL-5 melanoma = system: SK-MEL-5 melanoma
SN12C renal = system: SN12C renal
SNB-19 CNS = system: SNB-19 CNS
SNB-75 CNS = system: SNB-75 CNS
SR leukemia = system: SR leukemia
SW-620 colon = system: SW-620 colon
T-47D breast = system: T-47D breast
TK-10 renal = system: TK-10 renal
U251 CNS = system: U251 CNS
UACC-257 melanoma = system: UACC-257 melanoma
UACC-62 melanoma = system: UACC-62 melanoma
UO-31 renal = system: UO-31 renal
A549 NSCLC = system: A549 NSCLC
MCF7 breast = system: MCF7 breast
RXF 393 renal = system: RXF 393 renal
SF-295 CNS = system: SF-295 CNS
SK-MEL-28 melanoma = system: SK-MEL-28 melanoma
SK-OV-3 ovarian = system: SK-OV-3 ovarian
SF-539 CNS = system: SF-539 CNS

Measured: TGI

O=c1[nH]c(NCCCCCO)nc2nc[nH]c12
not listed: A549 NSCLC | MCF7 breast | RXF 393 renal | SF-295 CNS | SK-MEL-28 melanoma | SK-OV-3 ovarian | SF-539 CNS
> 100 µM: all other assays above

CN(Cc1ccccc1)C(=S)S
59.1 µM: HL-60(TB) leukemia
39.6 µM: HCT-116 colon
72.6 µM: M14 melanoma
49.2 µM: CCRF-CEM leukemia
40.7 µM: 786-0 renal
84.6 µM: MOLT-4 leukemia
77.8 µM: UO-31 renal
59.7 µM: SR leukemia
not listed: PC-3 prostate | RPMI-8226 leukemia | SNB-19 CNS | TK-10 renal | SF-539 CNS
> 100 µM: all other assays above

CC(C)NC(=O)OCCN=C1c2ccccc2C(Br)C(Br)c2ccccc21 (configuration not stated)
8.97 µM: UO-31 renal
33.2 µM: NCI-H226 lung
30 µM: DU-145 prostate | HOP-62 NSCLC
35.8 µM: UACC-257 melanoma
42 µM: SF-295 CNS
25.4 µM: ACHN renal
> 69.8 µM: HCT-15 colon
7.14 µM: IGROV1 ovarian
24.8 µM: OVCAR-8 ovarian
31.1 µM: UACC-62 melanoma
38.7 µM: SF-268 CNS
17 µM: HOP-92 NSCLC
25.5 µM: U251 CNS
> 62.9 µM: SK-OV-3 ovarian
43.4 µM: SN12C renal
29.3 µM: BT-549 breast
> 48.8 µM: PC-3 prostate
39.8 µM: SNB-75 CNS
14.9 µM: MOLT-4 leukemia
35.6 µM: OVCAR-3 ovarian
25 µM: HT29 colon
10.1 µM: LOX IMVI melanoma
18.4 µM: T-47D breast
2.6 µM: HL-60(TB) leukemia
21.1 µM: SK-MEL-5 melanoma
3.62 µM: K-562 leukemia
28.2 µM: MCF7 breast
30.5 µM: MDA-MB-231 breast
35.1 µM: SK-MEL-28 melanoma
49.8 µM: HCC-2998 colon
18.9 µM: COLO 205 colon
6.66 µM: RXF 393 renal
3.52 µM: NCI-H522 lung
9.64 µM: SF-539 CNS
27.2 µM: MDA-MB-435
17.2 µM: MALME-3M melanoma
6.58 µM: A498 renal
31.4 µM: HS 578T breast
62.4 µM: A549 NSCLC
8.34 µM: 786-0 renal
32.4 µM: NCI-H460 lung
16.2 µM: M14 melanoma
59.2 µM: EKVX NSCLC
33.6 µM: OVCAR-4 ovarian
> 54.1 µM: SK-MEL-2 melanoma
53.8 µM: NCI-H23 lung
> 58.1 µM: HCT-116 colon
43.3 µM: SNB-19 CNS
27.3 µM: OVCAR-5 ovarian
28.9 µM: MDA-N
21.6 µM: TK-10 renal
45.8 µM: KM12 colon
1.69 µM: CCRF-CEM leukemia
> 27.3 µM: SW-620 colon
19.7 µM: CAKI-1 renal
23.1 µM: RPMI-8226 leukemia
41.7 µM: NCI/ADR-RES ovarian

Fc1nc(Sc2ncnc3nc[nH]c23)nc(-c2c3ccccc3c3sc4ccccc4n23)n1
not listed: SR leukemia
> 100 µM: all other assays above

Reference: PubChem BioAssay (NCI)
